{
  "source": "patent US11896704B2",
  "about": "“Compounds useful for the treatment and/or care of the skin, hair, nails and/or mucous membranes” (LUBRIZOL ADVANCED MATERIALS, INC., priority 2017, dated 2024)",
  "key": {"[1]": {"tested_on": "mitochondrial complex I (NADH dehydrogenase)", "assay": "Mitochondrial complex I activity in human dermal fibroblasts, colorimetric assay", "type": "cell-based", "conditions": "HDFa, 48 hours", "protocol": "Inhibition of Mitochondrial Complex I Activity Using an Assay Based on Colorimetric Detection. Human Dermal Fibroblasts from adult (HDFa, Life Technologies) are seeded at a density of 750.000 cells/75 cm^2 flask (one flask per condition) in culture medium M106 with Low Serum Growth Supplement (Life Technologies). Cells are grown during 8 days at 37° C. in 5% CO2 humidified air. Then, medium is removed and cells are treated with scalar dilutions of the peptide […] (PEP-1, H-[SEQ ID. NO. 2]-NH2) at 1, 0.5 and 0.1 mg/ml in culture medium during 48 hours at 37° C. in 5% CO2 humidified air. Non-treated cells incubated in culture medium alone are used as basal conditions. […] After 48 hours of treatment, cells are detached using trypsin and resuspended in 60 ul of Phosphate buffer saline (Sigma). Total protein concentration is measured by a Pierce BCA Protein Assay Kit (BCA Assay, Thermo Scientific) following manufacturer's protocol to adjust the final protein concentration between 700-1000 ug/ml. Briefly, standards and samples are dispensed and Working Reagent is added to the samples. After 30 minutes of incubation at 37° C., absorbance is measured with a microplate reader (Clariostar®, BMG) at 562 nm. Mitochondrial complex I activity is measured with Complex I enzyme activity microplate assay Kit (Abcam) according to the manufacture's protocol. This assay follows the oxidation of NADH to NAD coupled to the reduction of a specific colorimetric dye, leading to an increase in absorbance at 450 nm. In brief, 200 ul of each sample (adjusted to 700-1000 ug/ml of total protein amount) is incubated for 3 hours. After that, wells are washed several times and incubated with Assay Solution provided with the kit (composed by NADH and the specific dye). For the determination of mitochondrial complex I activity, colorimetric increase of Optical Density (OD) at 450 nm in a kinetic reaction along 1 hour is measured with a microplate reader (Clariostar©, BMG). Results are calculated as the rate of increase in OD at 450 nm between two points in the linear zone over time. The percentage of mitochondrial complex I activity relative to basal conditions after the treatment with […] (PEP-1, H-[SEQ ID. NO. 2]-NH2) is represented in Table 9. These values represent the mean for at least three independent assays."}, "[2]": {"tested_on": "mitochondrial complex II (succinate-coenzyme Q reductase)", "assay": "Mitochondrial complex II activity in human dermal fibroblasts, colorimetric assay", "type": "cell-based", "conditions": "HDFa, 24 hours", "protocol": "Measurement of Increase in Mitochondrial Complex II Activity Using an Assay Based on Colorimetric Detection.\nHuman Dermal Fibroblasts from adult (HDFa, Life Technologies) are seeded at a density of 750.000 cells/75 cm^2 flask (one flask per condition) in culture medium M106 with Low Serum Growth Supplement (Life Technologies). Cells are grown during 7 days at 37° C. in 5% CO2 humidified air. […]. Non treated cells incubated in culture medium alone are used as basal conditions. After 24 hours of treatment, cells are detached using trypsin and resuspended in 40 ul of Phosphate buffer saline (Sigma). Total protein concentration is measured with a Pierce BCA Protein Assay Kit (BCA Assay, Thermo Scientific) following manufacturer's protocol to adjust the final protein concentration between 2500-3000 ug/ml. Briefly, standards and samples are dispensed and Working Reagent is added to the samples. After 30 minutes of incubation at 37° C., absorbance is measured with a microplate reader (Clariostar®, BMG) at 562 nm.\nMitochondrial complex II activity is measured with Complex II enzyme activity microplate assay Kit (Abcam) according to the manufacture's protocol. This assay follows the production of ubiquinol (QH2, produced by mitochondrial complex II) coupled to the reduction of a colorimetric dye (DCPIP, 2,6-diclorophenolindophenol). In brief, 50 ul of each sample (adjusted to 2500-3000 ug/ml of total protein amount) is incubated for 2 hours. After that, wells are washed several times and incubated with Activity solution provided with the kit (composed by ubiquinone, succinate and DCPIP). For the determination of mitochondrial complex II activity, colorimetric reduction of DCPIP at Optical Density (OD) 600 nm in a kinetic reaction along 30 minutes is measured with a microplate reader (Clariostar®, BMG). Results are calculated as the rate of decrease in absorbance at OD 600 nm between two points in the linear zone over time.\n[…]. These values represent the mean for at least three independent assays."}},
  "data": [
    {"substance": "H-Phe-Trp-Met-Lys-Arg-Lys-Arg-Val-Pro-NH2 (H-FWMKRKRVP-NH2) [PEP-1]", "values": [
      {"measurement": "Percentage of mitochondrial complex I activity relative to basal condition (%)", "setting": "[1]; 0.1 mg/mL", "result": 83.23, "unit": "%"},
      {"measurement": "Percentage of mitochondrial complex I activity relative to basal condition (%)", "setting": "[1]; 0.5 mg/mL", "result": 71.68, "unit": "%"},
      {"measurement": "Percentage of mitochondrial complex I activity relative to basal condition (%)", "setting": "[1]; 1 mg/mL", "result": 55.35, "unit": "%"},
      {"measurement": "Percentage of mitochondrial complex II activity relative to basal condition (%)", "setting": "[2]; 0.1 mg/mL", "result": 166.00, "unit": "%"},
      {"measurement": "Percentage of mitochondrial complex II activity relative to basal condition (%)", "setting": "[2]; 0.5 mg/mL", "result": 142.12, "unit": "%"},
      {"measurement": "Percentage of mitochondrial complex II activity relative to basal condition (%)", "setting": "[2]; 1 mg/mL", "result": 133.00, "unit": "%"}
    ]}
  ]
}
